Results reported in patent publication US10369138B2, “Monobactam organic compounds for the treatment of bacterial infections” (Novartis AG, priority 2014, dated 2019).
≈ marks a conversion by molar mass, not a printed value.

Key:
E. coli strain 25922 = test: MIC by broth microdilution, E. coli strain 25922; format: cell-based; details: Escherichia coli, 25922, E. coli strain 25922; read-out: Ec 25922 (MIC)
Experimental: (§1) Bacterial isolates were cultivated from −70° C. frozen stocks by two consecutive overnight passages at 35° C. in ambient air on 5% blood agar (Remel, Lenexa, Kans.). Quality control and P. aeruginosa ATCC 27853) is from the American Type Culture Collection (ATCC; Rockville, Md.) and PAO1 was received from Dr. K. Poole.
Minimal Inhibitory Concentrations (MICs) were determined by the broth microdilution method in accordance with Clinical and Laboratories Institute (CLSI) guidelines. In brief, fresh overnight bacterial cultures were suspended in sterile saline, and adjusted to a 0.5 McFarland turbidity standard. Bacterial suspensions were then diluted in cation adjusted Mueller-Hinton Broth (MHB II; BBL) to yield a final inoculum of approximately 5×10^5 colony-forming units (CFU)/mL. A master plate of antibiotics was prepared at a concentration equivalent to hundred-fold the highest desired final concentration in 100% dimethyl sulfoxide (DMSO). The master antibiotic plate was then diluted by serial twofold dilution with a multichannel pipette. The resulting dilution series of compounds were diluted 1:10 with sterile water leading to a 10% DMSO final concentration. A volume of 10 μL of the drug dilution series was transferred to 96-well assay plates. Assay plates were inoculated with 90 μL of bacterial suspensions and incubated at 35-37° C. for 20 hrs. The assay plates were read using a microtiter plate reader (Molecular Devices) at 600 nm as well as by visual observation with a reading mirror. The lowest concentration of the compound that prevented visible growth was recorded as the MIC. Performance of the assay was monitored by testing aztreonam against laboratory quality control strains in accordance with guidelines of the CLSI.

E. coli containing KPC-2 = test: MIC by broth microdilution, E. coli containing KPC-2 (Ec KPC2 Iso); format: cell-based; details: Escherichia coli, read-out: Ec KPC2 Iso (MIC), E. coli containing KPC-2 (carbapenemase from Klebsiella pneumoniae)
Experimental: as §1
Strain NB27273 (BW25113 pspB::Km^r) was obtained from the Keio transposon insertion collection. The strain has the pspB gene replaced by a kanamycin resistance marker (BW25113 pspB::Km^r). This strain was cured of the transposon in pspB via FLP recombinase using published methodology. The resulting strain, BW25113 pspB, was used as a host for multicopy vectors expressing key β-lactamases. Multicopy plasmids directing constitutive expression of β-lactamases were established as follows: Synthetic, codon optimized genes encoding E. coli KPC2 and SHV12 β-lactamases were made by DNA2.0 (Palo Alto, Calif.). Each of the synthetic fragments were designed to contain NotI and NcoI restriction sites at their termini, allowing ligation into a NotI/NcoI digested pET28a(+) derivative for protein expression. […] The codon optimized nucleotide sequences and relevant primer recognition information is shown below:
The PCR products were then digested with XhoI and EcoRI and ligated into similarly digested plasmid pAH63-pstS(BlaP). Plasmid pAH63-pstS(BlaP) is a derivative of plasmid pAH63 (J Bacteriol: 183(21): 6384-6393) made by cloning the TEM-1 (bla) promoter and signal peptide encoding region from plasmid pBAD (J Bacteriol. 1995 July 177(14):4121-30) into plasmid pAH63. This fragment was PCR amplified from pBAD using primer pair E192 (ttca[…]) (SEQ ID NO:13) and E194 ([…]) (SEQ ID NO:14), digested with PstI and BamHI and inserted into similarly digested plasmid pAH63. Therefore, expression of β-lactamases from pAH63-pstS(BlaP) based constructs is constitutive and the signal sequence is provided to direct these proteins to the periplasm. Plasmid pAH63 based vectors are used for insertion into the genome in single copy, however, to provide higher expression levels to allow more sensitive detection of the susceptibility of compounds to the β-lactamases, the expression inserts contained in these vectors were moved to the replicative multicopy vector pBAD-Kan (J Bacteriol. 1995 July 177(14):4121-30). To accomplish this, the inserts encompassing the β-lactamase genes, with the associated TEM promoter and signal sequences, were PCR amplified from their corresponding vectors using primer E269 (ccg[…]) (SEQ ID NO:15) and E202 (aatc[…]) (SEQ ID NO:16) for the KPC2 construct and E204 (aatc[…]) (SEQ ID NO:17) for the SHV12 construct. These fragments were then digested with XbaI and EcoRI, and each was inserted into pBAD18-kan that had been digested with the same enzymes to generate a pair of multicopy vectors expressing KPC2 and SHV12 respectively. These vectors were transformed into BW25113 pspB to generate strains NB27273-CDY0033 (expressing KPC2) and NB27273-CDY0030 (expressing SHV12). The pBAD18-kan vector also contains the TEM promoter region and signal sequence, (but lacks any intact β-lactamase genes) and was transformed into BW25113 pspB using standard protocols to generate the control strain NB27273-CDY0026. Expression of the β-lactamases was confirmed by verifying decreased susceptibility to example test antibiotics that are known substrates of KPC2 or SHV12. Susceptibility Testing
Minimal Inhibitory Concentrations (MICs) were determined by the broth microdilution method in accordance with Clinical and Laboratories Institute (CLSI) guidelines. In brief, fresh overnight bacterial cultures were suspended in sterile saline, and adjusted to a 0.5 McFarland turbidity standard. Bacterial suspensions were then diluted in cation adjusted Mueller-Hinton Broth (MHB II; BBL) to yield a final inoculum of approximately 5×10^5 colony-forming units (CFU)/mL. […]

Row | Compound | MIC (E. coli strain 25922) | MIC (E. coli containing KPC-2)
1 | CC(C)(O/N=C(\C(=O)N[C@@H]1C(=O)N(S(=O)(=O)O)[C@@H]1Cn1ccccc1=O)c1csc(N)n1)C(=O)O [Example 15, 2-(((Z)-(1-(2-aminothiazol-4-yl)-2-oxo-2-(((3S,4R)-2-oxo-4-((2-oxopyridin-1(2H)-yl)methyl)-1-sulfoazetidin-3-yl)amino)ethylidene)amino)oxy)-2-methylpropanoic acid] | 16 µg/mL (≈ 30.3 µM) | 8 µg/mL (≈ 15.1 µM)
2 | CC(C)(O/N=C(\C(=O)N[C@@H]1C(=O)N(S(=O)(=O)O)[C@@H]1Cn1cncn1)c1nsc(N)n1)C(=O)O [Example 16, 2-(((Z)-(2-(((2R,3S)-2-((1H-1,2,4-triazol-1-yl)methyl)-4-oxo-1-sulfoazetidin-3-yl)amino)-1-(5-amino-1,2,4-thiadiazol-3-yl)-2-oxoethylidene)amino)oxy)-2-methylpropanoic acid] | 4 µg/mL (≈ 7.94 µM) | 2 µg/mL (≈ 3.97 µM)
3 | Nc1nc(/C(=N/OCC(=O)O)C(=O)N[C@@H]2C(=O)N(S(=O)(=O)O)[C@@H]2Cn2cncn2)cs1 [Example 17, 2-(((Z)-(2-(((2R,3S)-2-((1H-1,2,4-triazol-1-yl)methyl)-4-oxo-1-sulfoazetidin-3-yl)amino)-1-(2-aminothiazol-4-yl)-2-oxoethylidene)amino)oxy)acetic acid] | 0.5 µg/mL (≈ 1.05 µM) | 0.25 µg/mL (≈ 0.527 µM)
4 | Nc1nc(/C(=N/OC2(C(=O)O)CC2)C(=O)N[C@@H]2C(=O)N(S(=O)(=O)O)[C@@H]2Cn2cncn2)cs1 [Example 18, 1-(((Z)-(2-(((2R,3S)-2-((1H-1,2,4-triazol-1-yl)methyl)-4-oxo-1-sulfoazetidin-3-yl)amino)-1-(2-aminothiazol-4-yl)-2-oxoethylidene)amino)oxy)cyclopropanecarboxylic acid] | 0.5 µg/mL (≈ 0.999 µM) | 0.25 µg/mL (≈ 0.5 µM)
5 | NCc1cnn(C[C@@H]2[C@H](NC(=O)/C(=N\OC3(C(=O)O)CC3)c3csc(N)n3)C(=O)N2S(=O)(=O)O)n1 [Example 19, 1-(((Z)-(2-(((2R,3S)-2-((4-(aminomethyl)-2H-1,2,3-triazol-2-yl)methyl)-4-oxo-1-sulfoazetidin-3-yl)amino)-1-(2-aminothiazol-4-yl)-2-oxoethylidene)amino)oxy)cyclopropanecarboxylic acid] | 0.25 µg/mL (≈ 0.472 µM) | 0.25 µg/mL (≈ 0.472 µM)
6 | Nc1nc(/C(=N/OCC(=O)O)C(=O)N[C@@H]2C(=O)N(S(=O)(=O)O)[C@@H]2CN2CCOC2=O)cs1 [Example 21, 2-(((Z)-(1-(2-aminothiazol-4-yl)-2-oxo-2-(((3S,4R)-2-oxo-4-((2-oxooxazolidin-3-yl)methyl)-1-sulfoazetidin-3-yl)amino)ethylidene)amino)oxy)acetic acid] | 0.25 µg/mL (≈ 0.508 µM) | 0.5 µg/mL (≈ 1.02 µM)
7 | C[C@@H]1CN(C[C@@H]2[C@H](NC(=O)/C(=N\OC(C)(C)C(=O)O)c3csc(N)n3)C(=O)N2S(=O)(=O)O)C(=O)O1 [Example 23, 2-(((Z)-(1-(2-aminothiazol-4-yl)-2-(((2R,3S)-2-(((R)-5-methyl-2-oxooxazolidin-3-yl)methyl)-4-oxo-1-sulfoazetidin-3-yl)amino)-2-oxoethylidene)amino)oxy)-2-methylpropanoic acid] | 2 µg/mL (≈ 3.74 µM) | 1 µg/mL (≈ 1.87 µM)
8 | CC(C)(O/N=C(\C(=O)N[C@@H]1C(=O)N(S(=O)(=O)O)[C@@H]1CN1C[C@@H](CNC(=N)N)OC1=O)c1csc(N)n1)C(=O)O [Example 24, 2-(((Z)-(1-(2-aminothiazol-4-yl)-2-(((2R,3S)-2-(((R)-5-(guanidinomethyl)-2-oxooxazolidin-3-yl)methyl)-4-oxo-1-sulfoazetidin-3-yl)amino)-2-oxoethylidene)amino)oxy)-2-methylpropanoic acid] | 0.25 µg/mL (≈ 0.423 µM) | 1 µg/mL (≈ 1.69 µM)
9 | NC[C@@H]1CN(C[C@@H]2[C@H](NC(=O)/C(=N\OC3(C(=O)O)CC3)c3csc(N)n3)C(=O)N2S(=O)(=O)O)C(=O)O1 [Example 25, 1-(((Z)-(2-(((2R,3S)-2-(((R)-5-(aminomethyl)-2-oxooxazolidin-3-yl)methyl)-4-oxo-1-sulfoazetidin-3-yl)amino)-1-(2-aminothiazol-4-yl)-2-oxoethylidene)amino)oxy)-cyclopropanecarboxylic acid] | 0.125 µg/mL (≈ 0.228 µM) | ≤ 0.06 µg/mL
10 | N=C(N)NC[C@@H]1CN(C[C@@H]2[C@H](NC(=O)/C(=N\OC3(C(=O)O)CC3)c3csc(N)n3)C(=O)N2S(=O)(=O)O)C(=O)O1 [Example 26, 1-(((Z)-(1-(2-aminothiazol-4-yl)-2-(((2R,3S)-2-(((R)-5-(guanidinomethyl)-2-oxooxazolidin-3-yl)methyl)-4-oxo-1-sulfoazetidin-3-yl)amino)-2-oxoethylidene)amino)oxy)-cyclopropanecarboxylic acid] | 0.125 µg/mL (≈ 0.212 µM) | ≤ 0.06 µg/mL
11 | NCc1cn(C[C@@H]2[C@H](NC(=O)/C(=N\OC3(C(=O)O)CC3)c3csc(N)n3)C(=O)N2S(=O)(=O)O)nn1 [Example 27, 1-(((Z)-(2-(((2R,3S)-2-((4-(aminomethyl)-1H-1,2,3-triazol-1-yl)methyl)-4-oxo-1-sulfoazetidin-3-yl)amino)-1-(2-aminothiazol-4-yl)-2-oxoethylidene)amino)oxy)cyclopropanecarboxylic acid] | ≤ 0.06 µg/mL | 0.125 µg/mL (≈ 0.236 µM)
12 | C[C@H](O/N=C(\C(=O)N[C@@H]1C(=O)N(S(=O)(=O)O)[C@@H]1Cn1cncn1)c1csc(N)n1)C(=O)O [Example 29, (S)-2-(((Z)-(2-(((2R,3S)-2-((1H-1,2,4-triazol-1-yl)methyl)-4-oxo-1-sulfoazetidin-3-yl)amino)-1-(2-aminothiazol-4-yl)-2-oxoethylidene)amino)oxy)propanoic acid] | 0.25 µg/mL (≈ 0.512 µM) | 1 µg/mL (≈ 2.05 µM)
13 | C[C@@H](O/N=C(\C(=O)N[C@@H]1C(=O)N(S(=O)(=O)O)[C@@H]1Cn1cncn1)c1csc(N)n1)C(=O)O [Example 30, (R)-2-(((Z)-(2-(((2R,3S)-2-((1H-1,2,4-triazol-1-yl)methyl)-4-oxo-1-sulfoazetidin-3-yl)amino)-1-(2-aminothiazol-4-yl)-2-oxoethylidene)amino)oxy)propanoic acid] | 1 µg/mL (≈ 2.05 µM) | 1 µg/mL (≈ 2.05 µM)
14 | Nc1nc(/C(=N/OC2(C(=O)O)CCC2)C(=O)N[C@@H]2C(=O)N(S(=O)(=O)O)[C@@H]2Cn2cncn2)cs1 [Example 32, 1-(((Z)-(2-(((2R,3S)-2-((1H-1,2,4-triazol-1-yl)methyl)-4-oxo-1-sulfoazetidin-3-yl)amino)-1-(2-aminothiazol-4-yl)-2-oxoethylidene)amino)oxy)cyclobutanecarboxylic acid] | 2 µg/mL (≈ 3.89 µM) | 1 µg/mL (≈ 1.94 µM)
